The subject of experiment [1] is forskolin-stimulated accumulation of cAMP. Description: Cyclic AMP accumulation in intact cells (block of forskolin-stimulated accumulation of cAMP). It is filed as cell-based. Conditions: for EC50: 10 min, 37° C.; for Emax: relative to melatonin, read-out: I.A. (Intrinsic Activity) = Emax (experimental compound)/Emax (melatonin). The source says:
Further, the compounds are agonists as determined by their ability, like melatonin, to block the forskolin-stimulated accumulation of cAMP in certain cells.
Measurement of Functional Activity
Cyclic AMP Accumalation in Intact Cells: Melatonin
Remove media from cell flask and wash with Hank's salt solution or PBS as appropriate. Detach cells from flask using whatever means are used when splitting. Add enough media so that the concentration of cells is 4×10^5 /ml when counted with a hemocytometer (40 cells in the center square). This concentration of cells can Vary depending on the ultimate cAMP response of the type of cells used. Also, dialyzed fetal bovine serum (FBS) or heat inactivated FBS should be used in the-media when plating the cells in case endogenous substances are present in the FBS that might interfere with the test. Add 1 ml of cell suspension to each well (4×10^5 cells/well), then 2 mls of media and incubate cells overnight.
SOLUTIONS needed for cyclase:
1. Stock solution: plain media (no serum or additives) +20mM HEPES. (500 ml bottle media+10 mls of 1M HEPES GIBCO stock). This solution can be refrigerated and reused.
2. IBMX solution: media/HEPES+1 mM IBMX. (50 mls+11.1 mg IBMX, IBMX mw=222.2). This solution can be refrozen.
3. Assay solution: 90% stock solution+10% IBMX solution. Figure out the volume of solution needed for the assay. Each well gets 3 mls of assay solution for a preincubation and 3 mls for the actual assay, therefore, 6 mls/well. Each test condition is done in triplicate.
a) Basal 7 mls assay solution +[…]
b) Forskolin Stimulation: […]: 7 mls assay solution +[…] (stock solution in freezer, in DMSO)
c) Forskolin+competitor (melatonin): […]: 7 mls assay solution +[…]+desired concentration of competitor (melatonin). Solutions b) and c) can be combined when adding forskolin, then split before adding competitor.
All solutions should be warmed to 37° C. All test conditions are done in triplicate. Plates with cells are kept in a shallow 37° C. water bath throughout the reaction. Remove media from the wells and add 3 ml of preincubation media. After 10 min, remove that solution and add 3 mls of drug solution. After 10 min the media is removed and reaction stopped with 1 ml 0.1N HCl. Staggering the incubation is recommended. The preincubation step can be eliminated if the cells don't adhere well to the plate or the plates can be pretreated with extracellular matrix such as poly-D-lysine. Let samples set for at least an hour at room temperature. Remove 1 ml from dish and put into a microfuge tube. Do a 3 min spin to remove floating cells. Dilute 1:100 for RIA (this dilution will vary depending on the concentration curve of the RIA kit and the cAMP response and concentration of the cells). Do radioimmunoassay (Amersham: Cat.no. RPA.509).

A further experiment has as its system rats. Conditions: exogenous melatonin administration, Cassone, et al., 1986; cited from earlier work.
The test system of experiment [2] is [^125 I]-2-iodomelatonin binding. Conditions: comparative study; Copinga et al, J.Med. Chem., 1993, 36, 2891; cited from earlier work.

For the compound `COc1cc(CCCNC(=O)C2CC2)ccc1Cl` [Example 30, N-[3-(4-Chloro-3-methoxyphenyl)propyl]-cyclopropane carboxamide], in experiment [1], the EC50 worked out at 3.4 nM and the Emax was 98%.

Regarding `COc1ccc2[nH]cc(CCNC(C)=O)c2c1` [melatonin, N-acetyl-5-methoxytryptamine], in the experiment with rats, the “synchronization of circadian rhythms” value was “found to synchronize circadian rhythms in rats”.

For `COc1cccc(CCNC(C)=O)c1` [compound 10], the “[125I]-2-iodomelatonin binding properties, in words” value in experiment [2] is recorded as “markedly inferior”.

With `CCCC(=O)NCCCc1cccc(OC)c1` [Example 2, N-[3-(3-Methoxyphenyl)propyl]butanamide], in experiment [1], the midpoint of the response, the EC50, lay at 4.9 nM and the Emax was determined as 95%.

`COc1ccc(F)c(/C=C\CNC(=O)C(C)C)c1` [Example 7, cis-N-[3-(2-Fluoro-5-methoxyphenyl)-2-propenyl]-2-methylpropanamide]: in experiment [1], the half-maximal effective concentration (EC50) was determined as 120 nM and the Emax worked out at 120%.
